Measured values from the supplement of paper PMC13207355.

Columns and labels:
Settings in all cases: exposure time: 72 h
E13 [1] = patient-derived glioblastoma stem cells of classical subtype; assay: phenotypic distance (Euclidean, principal components) from DMSO controls (arbitrary units); higher = stronger morphological change
E34 [2] = patient-derived glioblastoma stem cells of proneural subtype; assay: as above
E31 [3] = patient-derived glioblastoma stem cells of proneural subtype; assay: as above
FT3469 [4] = normal neural stem cell line; assay: as above
E28 [5] = patient-derived glioblastoma stem cells of classical subtype; assay: as above
E57 [6] = patient-derived glioblastoma stem cells of mesenchymal subtype; assay: as above
E21 [7] = patient-derived glioblastoma stem cells of mesenchymal subtype; assay: as above
E13 [8] = assay: surviving fraction (nuclei count normalised to DMSO); higher = more cells surviving (less toxic)
E34 [9] = assay: as above
E31 [10] = assay: as above
FT3469 [11] = assay: as above
E28 [12] = assay: as above
E57 [13] = assay: as above
E21 [14] = assay: as above
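For phenotypic distance (Euclidean, principal components) from DMSO controls in this document: cell Painting imaging in 384-well plates, CellProfiler features reduced to at least 20 principal components, Euclidean distance versus same-plate DMSO vehicle wells (0.1% v/v), median over six images per well.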
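For surviving fraction (nuclei count normalised to DMSO) in this document: nuclei counted by high-content imaging of Hoechst-stained cells in laminin-coated 384-well plates, relative to 0.1% DMSO vehicle wells, with staurosporine as cell-death control.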

Oc1c(Cl)cc(Cl)c(Cl)c1Cc1c(O)c(Cl)cc(Cl)c1Cl [Hexachlorophene]
Settings	phenotypic distance	surviving fraction
E13 [1], 4.1 nM	0.81	–
E13 [1], 12.3 nM	0.795	–
E13 [1], 37 nM	3	–
E13 [1], 111.1 nM	0.903	–
E13 [1], 333.3 nM	3.34	–
E13 [1], 1000 nM	1.8	–
E13 [1], 3000 nM	3.77	–
E13 [8], 4.1 nM	–	0.829
E13 [8], 12.3 nM	–	0.908
E13 [8], 37 nM	–	0.957
E13 [8], 111.1 nM	–	0.796
E13 [8], 333.3 nM	–	0.826
E13 [8], 1000 nM	–	0.68
E13 [8], 3000 nM	–	0.367
E21 [7], 4.1 nM	1	–
E21 [7], 12.3 nM	0.629	–
E21 [7], 37 nM	1.26	–
E21 [7], 111.1 nM	0.988	–
E21 [7], 333.3 nM	1.51	–
E21 [7], 1000 nM	2.2	–
E21 [7], 3000 nM	4.77	–
E21 [14], 4.1 nM	–	0.928
E21 [14], 12.3 nM	–	0.925
E21 [14], 37 nM	–	0.965
E21 [14], 111.1 nM	–	0.903
E21 [14], 333.3 nM	–	0.964
E21 [14], 1000 nM	–	0.762
E21 [14], 3000 nM	–	0.552
E28 [5], 4.1 nM	1.12	–
E28 [5], 12.3 nM	0.421	–
E28 [5], 37 nM	0.961	–
E28 [5], 111.1 nM	0.709	–
E28 [5], 333.3 nM	0.784	–
E28 [5], 1000 nM	1.11	–
E28 [5], 3000 nM	1.45	–
E28 [12], 4.1 nM	–	0.954
E28 [12], 12.3 nM	–	1.03
E28 [12], 37 nM	–	1.04
E28 [12], 111.1 nM	–	0.884
E28 [12], 333.3 nM	–	1.04
E28 [12], 1000 nM	–	0.839
E28 [12], 3000 nM	–	0.748
E31 [3], 4.1 nM	0.745	–
E31 [3], 12.3 nM	0.7	–
E31 [3], 37 nM	0.853	–
E31 [3], 111.1 nM	0.867	–
E31 [3], 333.3 nM	1.39	–
E31 [3], 1000 nM	1.83	–
E31 [3], 3000 nM	3.79	–
E31 [10], 4.1 nM	–	0.956
E31 [10], 12.3 nM	–	0.937
E31 [10], 37 nM	–	1.03
E31 [10], 111.1 nM	–	0.964
E31 [10], 333.3 nM	–	1.03
E31 [10], 1000 nM	–	1.18
E31 [10], 3000 nM	–	0.648
E34 [2], 4.1 nM	0.861	–
E34 [2], 12.3 nM	0.839	–
E34 [2], 37 nM	0.672	–
E34 [2], 111.1 nM	0.741	–
E34 [2], 333.3 nM	1.14	–
E34 [2], 1000 nM	2.31	–
E34 [2], 3000 nM	3.14	–
E34 [9], 4.1 nM	–	0.818
E34 [9], 12.3 nM	–	0.897
E34 [9], 37 nM	–	1
E34 [9], 111.1 nM	–	0.845
E34 [9], 333.3 nM	–	0.754
E34 [9], 1000 nM	–	0.721
E34 [9], 3000 nM	–	0.448
E57 [6], 4.1 nM	0.958	–
E57 [6], 12.3 nM	0.865	–
E57 [6], 37 nM	1	–
E57 [6], 111.1 nM	1.03	–
E57 [6], 333.3 nM	2.28	–
E57 [6], 1000 nM	3.09	–
E57 [6], 3000 nM	6.18	–
E57 [13], 4.1 nM	–	0.988
E57 [13], 12.3 nM	–	1.11
E57 [13], 37 nM	–	0.949
E57 [13], 111.1 nM	–	0.977
E57 [13], 333.3 nM	–	0.908
E57 [13], 1000 nM	–	0.776
E57 [13], 3000 nM	–	0.396
FT3469 [4], 4.1 nM	0.687	–
FT3469 [4], 12.3 nM	1.29	–
FT3469 [4], 37 nM	0.725	–
FT3469 [4], 111.1 nM	0.625	–
FT3469 [4], 333.3 nM	1.47	–
FT3469 [4], 1000 nM	1.56	–
FT3469 [4], 3000 nM	2.68	–
FT3469 [11], 4.1 nM	–	0.963
FT3469 [11], 12.3 nM	–	0.887
FT3469 [11], 37 nM	–	1.07
FT3469 [11], 111.1 nM	–	0.895
FT3469 [11], 333.3 nM	–	0.922
FT3469 [11], 1000 nM	–	0.792
FT3469 [11], 3000 nM	–	0.648
